Laboratory results: patent US6770728B2, “Process for preparing ocular lens with urethane compound and process for preparing urethane compound for medical instruments” (Menicon Co., Ltd., priority 1999, dated 2004)

Assay: Solubility of catalysts in various solvents (maximum amount completely soluble)
Type: physicochemical
Procedure: Solubility of a various kind of catalysts in a various kind of solvents (water, methanol, acetone, acetonitrile, n-hexane, methylene chloride) was evaluated by studying maximum amount of catalysts completely soluble in a various kind of solvents.

- Solubility (solvent: acetone): 1000 µg/mL
- Solubility (solvent: acetonitrile): insoluble
- Solubility (solvent: methanol): 50000 µg/mL
- Solubility (solvent: methylene chloride): 10000 µg/mL
- Solubility (solvent: n-hexane): insoluble
- Solubility (solvent: water): insoluble
Substance: Zinc acetylacetonate [ZnAA]
